Experimental findings from ChEMBL document CHEMBL3813683, “Design, synthesis and anti-cancer activity evaluation of podophyllotoxin-norcantharidin hybrid drugs” (Bioorg Med Chem Lett, 2016) are described below.

The source made the active and inactive calls. No cut-off for these calls is given here.

The assay addresses Tubulin (Homo sapiens) (UniProt P68371+Q9H4B7+P0DPH7+P68366+Q13509+Q71U36+P04350+Q3ZCM7+P07437+P68363+Q9BQE3+Q6PEY2+Q13885+Q9BVA1+Q9BUF5). As to the kind of experiment: Inhibition of tubulin polymerization in human MCF7 cells assessed as alteration of interphase microtubule network at 2 uM after 24 hrs by DAPI staining-based confocal microscopic analysis. In kind it is cell-based.

`CC(=O)O[C@H]1C(=O)[C@@]2(C)[C@H]([C@H](OC(=O)c3ccccc3)[C@]3(O)C[C@H](OC(=O)[C@H](O)[C@@H](NC(=O)c4ccccc4)c4ccccc4)C(C)=C1C3(C)C)[C@]1(OC(C)=O)CO[C@@H]1C[C@@H]2O`: the inhibition result was “inactive”.
